Results as given in the OligoGym collection.
HELM strings list units from the 5' end as sugar, base in round brackets, then linkage (d deoxyribose, r ribose, m 2'-O-methyl, p phosphodiester). Strings are as the collection lists them; they lack the last nucleoside at the 3' end of the tested compound. [moe] = 2'-O-(2-methoxyethyl) (MOE); [sp] = phosphorothioate linkage; [m5C] = 5-methylcytosine

molecular target: LRRK2; test: mouse, dose not given; details: ASO

Question: For “RNA1{[moe](A)[sp].[moe](G)[sp].[moe](T)[sp].[moe](T)[sp].[moe]([m5C])[sp].d([m5C])[sp].d(T)[sp].d(T)[sp].d([m5C])[sp].d(A)[sp].d(G)[sp].d(T)[sp].d([m5C])[sp].d(T)[sp].d([m5C])[sp].[moe](A)[sp].[moe](A)p.[moe](G)[sp].[moe](G)}$$$$ (last 3' nucleoside missing)”, which 3 h FOB score is on record?
Answer: 7 score 0-7

Question: With “RNA1{[moe](G)[sp].[moe](T)p.[moe](A)p.[moe]([m5C])p.[moe]([m5C])[sp].d([m5C])[sp].d(T)[sp].d(T)[sp].d(T)[sp].d([m5C])[sp].d([m5C])[sp].d(A)[sp].d(T)[sp].d(G)[sp].d(T)[sp].[moe](G)p.[moe](A)p.[moe](A)[sp].[moe]([m5C])}$$$$ (last 3' nucleoside missing)” as the substance, how does the 3 h FOB score read?
Answer: 1 score 0-7

Question: For “RNA1{[moe](T)[sp].[moe]([m5C])p.[moe](A)p.[moe]([m5C])p.[moe]([m5C])[sp].d(A)[sp].d([m5C])[sp].d(A)[sp].d(A)[sp].d(A)[sp].d([m5C])[sp].d(T)[sp].d([m5C])[sp].d(A)[sp].d(T)[sp].[moe](G)p.[moe](G)p.[moe](A)[sp].[moe]([m5C])}$$$$ (last 3' nucleoside missing)”, which 3 h FOB score is on record?
Answer: 3 score 0-7

Question: For “RNA1{[moe]([m5C])[sp].[moe](T)p.[moe]([m5C])p.[moe](A)p.[moe](T)[sp].d(A)[sp].d(T)[sp].d([m5C])[sp].d(T)[sp].d(A)[sp].d(A)[sp].d(A)[sp].d(G)[sp].d(A)[sp].d([m5C])[sp].[moe]([m5C])p.[moe](G)p.[moe]([m5C])[sp].[moe](A)}$$$$ (last 3' nucleoside missing)”, which 3 h FOB score is on record?
Answer: 1 score 0-7
